Results reported in patent publication US5144010A, “Method of producing monoclonal auto-anti-idiotypic antibodies” (The Trustees of Columbia University in the City of New York, priority 1989, dated 1992).
Read-outs that look alike come from different tables or passages of the source.

What was measured:
[1] = biological target: anti-steroid antibodies; assay: Competitive inhibition of binding of [3H]TA to rabbit anti-steroid antibodies (serum, affinity purified, Fab fragments)
Experimental: After incubating for 11/2 hrs at room temperature add 1 ml cold 5% charcoal/dextran (dil 1:40 with 0.1% gelatin in PBS). Let stand at 4° C. for 10 mins.

[2] = test system: anti-steroid Fab fragments; assay: ELISA of 8G11-C6 binding to anti-steroid Fab fragments and its inhibition; design: species or system rabbit; settings: inhibitor pre-incubated (FIG. 9, 10)
Experimental: FIG. 9 and 10. […] Controls with no inhibitor were included. […] Blanks with only PBS were included as well. The inhibitors used in FIG. 9 were triamcinolone acetonide ( ), triamcinolone-RSA ( ) and rabbit serum albumin ( ).
FIG. 11. […] The method used was similar to that described in the experimental procedure. […] 200λ of the incubation mixture was then added to microtiter wells previously coated with 10 ng anti-steroid Fab fragments and incubated for 2 hrs at 37° C.
The presence of anti-idiotypic antibodies in the hybridoma culture medium were assayed by a double antibody sandwich ELISA. […] After washing twice with 0.01M phosphate buffer - 0.14M NaCl, pH 7.4, containing 0.05% Tween (PBS-tween), the culture medium from the hybridomas was added and incubated at 37° C. for 2 hrs. The wells were washed three times with PBS-tween and 200 microliters of 1:3,000 dilution in PBS-tween of goat anti-mouse IgM-IgG horseradish peroxidase (Tago) was added. After incubating 1 hr at 37° C., the wells were washed three times with PBS-tween and 200 microliters substrate (7 mg o-phenylenediamine dichloride in 10 ml 0.1 M citrate-phosphate buffer, pH 4.8 containing 5 microliters of 30% H2 O2) was added. Depending on the intensity of the color, the reaction was stopped after 5-10 min by the addition of 50 microliters 8N H2 SO4 and the OD determined (Titretek) at 492 nm.

[3] = biological target: T1, partially purified glucocorticoid receptor (Rattus norvegicus, UniProt P06536); assay: ELISA of 8G11-C6 binding to partially purified glucocorticoid receptor and its inhibition; settings: ELISA (FIG. 13)
T1 sequence (P06536 1-795): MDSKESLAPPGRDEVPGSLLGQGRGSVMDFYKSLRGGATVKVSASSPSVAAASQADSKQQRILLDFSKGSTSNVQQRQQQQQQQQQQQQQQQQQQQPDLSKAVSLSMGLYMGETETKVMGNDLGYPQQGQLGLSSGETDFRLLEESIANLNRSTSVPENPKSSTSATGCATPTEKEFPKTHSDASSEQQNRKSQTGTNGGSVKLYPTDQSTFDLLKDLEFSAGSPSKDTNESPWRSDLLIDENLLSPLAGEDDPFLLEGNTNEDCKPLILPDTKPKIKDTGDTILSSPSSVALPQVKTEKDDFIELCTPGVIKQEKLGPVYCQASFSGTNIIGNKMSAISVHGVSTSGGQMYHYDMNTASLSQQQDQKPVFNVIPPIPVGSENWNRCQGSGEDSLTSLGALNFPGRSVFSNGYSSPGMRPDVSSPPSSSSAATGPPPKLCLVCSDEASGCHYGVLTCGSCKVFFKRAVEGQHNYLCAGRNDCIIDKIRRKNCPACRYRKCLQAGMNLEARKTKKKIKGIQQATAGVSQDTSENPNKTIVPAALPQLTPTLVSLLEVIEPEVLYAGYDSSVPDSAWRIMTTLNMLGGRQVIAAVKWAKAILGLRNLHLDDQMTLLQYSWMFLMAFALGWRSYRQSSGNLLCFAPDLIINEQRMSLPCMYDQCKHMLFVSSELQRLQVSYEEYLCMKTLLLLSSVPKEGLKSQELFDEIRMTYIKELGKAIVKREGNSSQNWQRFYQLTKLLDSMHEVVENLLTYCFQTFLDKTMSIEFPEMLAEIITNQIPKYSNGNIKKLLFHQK
Experimental: FIG. 12. […] 200 microliters containing either 1.08 micrograms ( ) or 0.54 micrograms ( ) of a partially purified receptor preparation in 0.1 M NaHCO3 were added to the wells of the polystyrene plastic and incubated overnight at 4° C. […] See methods section for the methodology employed.
FIG. 13. […] 200 microliters containing 0.54 micrograms protein of a partially purified receptor preparation in 0.1 M NaHCO3 pH 9.3 was added to the wells of polystyrene plates. These were incubated for 2 hrs at 37° C. Washed 2× with PBS containing 0.02% Tween. […] See methods for the methodology employed. The inhibitors used were triamcinolone acetonide ( ), rabbit serum albumin ( ) and triamcinolone-RSA ( ).

[4] = biological target: T2, glucocorticoid receptor (Rattus norvegicus, UniProt P06536); assay: Competitive inhibition of binding of [3H]triamcinolone acetonide to glucocorticoid receptor in rat liver cytosol; settings: apparent Kd of the glucocorticoid receptor, competitive binding with [3H]TA as tracer (FIG. 6, Table I)
T2 sequence (P06536 1-795): T1 sequence (P06536 1-795)
Experimental: (§3) Incubate in a total volume of 500 microliters, for 2 hrs at 4° C., 20 mM HEPES buffer containing 50 mM NaCl, 1 mM EDTA, 10% glycerol 0.1 mM DTT pH 7.6, 10 nM [^3 H]TA and 200 microliters rat liver cytosol. Add 250 microliters 5% charcoal/dextran suspension and after 10 min centrifuge and determine the radioactivity in 200 λ aliquot.
(§4) The results tabulated in table I below represents the amount of unlabeled steroid that can displace 50% binding of 1×10^-8 M [^3 H]TA. Binding in the absence of competing steroid was taken as 100%.
(§5) Table I: Competitive inhibition of binding of [^3 H] triamcinolone to
(§6) glucocorticoid receptor included 100 ml of rat liver cytosol. 10^-8 M
(§7) [^3 H]TA and increasing concentrations of steroid in a total volume o
(§8) 200 ml. After incubating for 2 hrs at 4° C., 100 5%
(§9) charcoal/dextran was added. Let stand for 5 mins at 4° C. Make up
(§10) to 1 ml with PBS and after 5 mins centrifuge down charcoal. Decant
(§11) supernatant into scintillation vials. Add 10 ml hydrofluor and count.

[5] = biological target: T2, glucocorticoid receptor; assay: biochemical
Experimental: as §3, §4, §5, §6, §7, §8, §9, §10, §11

[6] = biological target: rabbit anti-BisQ; assay: Enzyme immunoassay of F8-D5 binding to rabbit anti-BisQ and its inhibition; settings: read-out: concentration giving 50% inhibition of binding of F8-D5 to rabbit anti-BisQ; stated as a similar concentration
Experimental: (§1) Wells of polystyrene plates (Corning) were then coated with 150 microliters of either 400 ng/ml purified rabbit anti-BisQ (1) in 0.1 M NaHCO3, pH 9.3, or […] purified Torpedo receptor in the same buffer. Coating was accomplished by incubating for 2 h at 37° C. After two washings with 0.01 M phosphate buffer:0.14 M NaCl, pH 7.2, containing 0.05% v/v Tween-20 (PBS-Tween), the wells were exposed to the various concentrations of F8-D5 in PBS-Tween. After incubation at 37° C. for 2h, the wells were washed three times with PBS-Tween and then filled with 200 microliters of 1:1,000 dilution in PBS-Tween of goat anti-mouse immunoglobulin labeled with horseradish -peroxidase (Sigma). After incubation at 37° C. for 1 h, the wells were washed three times with PBS-Tween. Peroxidase was assayed by incubation with o-phenylenediamine dihydrochloride (7 mg in 10 ml 0.1 M citrate-phosphate buffer, pH 4.8, containing 5 microliters of 30% H2 O2) for 10 min. The reaction was stopped with 50 microliters per well of 4 M H2 SO4 and the color read at 492 nm in a Multiskan Titertek apparatus. Values were corrected for a PBS blank which was never higher than 0.150. (The above conditions were not chosen for optimal sensitivity but for speed and convenience.)
(§2) To confirm that the same monoclonal antibody bound receptor and anti-BisQ, reciprocal inhibition experiments were carried. […]

[7] = biological target: T3, Torpedo AChR (Tetronarce californica, UniProt P02710+P02714+P02718); assay: Enzyme immunoassay of F8-D5 binding to Torpedo AChR and its inhibition
T3 construct: purified Torpedo AChR preparation; from tissue; host or cells: Torpedo electric organ (inferred, the usual source of purified Torpedo receptor)
T3 sequence (P02710 25-461): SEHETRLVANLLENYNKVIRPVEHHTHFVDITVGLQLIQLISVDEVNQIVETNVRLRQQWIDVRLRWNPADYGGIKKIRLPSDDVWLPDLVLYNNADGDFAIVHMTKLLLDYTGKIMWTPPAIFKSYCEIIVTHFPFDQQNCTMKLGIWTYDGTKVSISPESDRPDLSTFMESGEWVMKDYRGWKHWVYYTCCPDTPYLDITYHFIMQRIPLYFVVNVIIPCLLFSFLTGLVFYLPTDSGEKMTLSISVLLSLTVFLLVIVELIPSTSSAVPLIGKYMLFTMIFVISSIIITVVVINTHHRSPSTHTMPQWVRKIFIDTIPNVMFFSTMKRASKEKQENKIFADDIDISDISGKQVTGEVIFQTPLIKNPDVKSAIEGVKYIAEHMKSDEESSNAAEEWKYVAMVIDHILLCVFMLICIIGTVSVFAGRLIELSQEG
T3 sequence (P02712 25-493 partner): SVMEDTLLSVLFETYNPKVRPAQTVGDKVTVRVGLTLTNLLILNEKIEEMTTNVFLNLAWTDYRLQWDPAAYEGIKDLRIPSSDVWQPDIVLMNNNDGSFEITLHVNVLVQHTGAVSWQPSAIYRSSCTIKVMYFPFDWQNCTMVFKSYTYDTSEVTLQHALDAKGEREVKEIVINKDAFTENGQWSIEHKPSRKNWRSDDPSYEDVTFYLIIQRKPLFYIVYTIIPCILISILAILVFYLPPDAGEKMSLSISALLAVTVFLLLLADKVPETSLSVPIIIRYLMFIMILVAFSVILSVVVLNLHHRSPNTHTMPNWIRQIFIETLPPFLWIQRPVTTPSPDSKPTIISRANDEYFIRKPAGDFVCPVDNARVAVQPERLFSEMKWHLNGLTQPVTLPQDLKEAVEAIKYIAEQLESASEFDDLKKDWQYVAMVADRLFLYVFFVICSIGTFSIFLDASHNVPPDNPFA
T3 sequence (P02714 18-506): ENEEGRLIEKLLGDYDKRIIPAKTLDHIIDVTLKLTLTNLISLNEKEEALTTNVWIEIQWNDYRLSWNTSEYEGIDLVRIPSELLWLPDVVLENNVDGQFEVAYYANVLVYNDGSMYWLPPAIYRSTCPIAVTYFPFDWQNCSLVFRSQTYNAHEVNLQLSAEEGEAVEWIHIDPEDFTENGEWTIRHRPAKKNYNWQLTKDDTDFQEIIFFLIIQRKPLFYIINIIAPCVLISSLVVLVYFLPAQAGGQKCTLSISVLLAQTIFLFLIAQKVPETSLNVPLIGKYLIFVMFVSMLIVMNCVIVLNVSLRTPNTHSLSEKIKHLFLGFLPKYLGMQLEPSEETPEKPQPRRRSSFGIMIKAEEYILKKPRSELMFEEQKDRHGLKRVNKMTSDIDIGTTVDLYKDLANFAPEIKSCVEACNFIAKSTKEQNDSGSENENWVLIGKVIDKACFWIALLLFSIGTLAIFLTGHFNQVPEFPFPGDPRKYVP
T3 sequence (P02718 22-522): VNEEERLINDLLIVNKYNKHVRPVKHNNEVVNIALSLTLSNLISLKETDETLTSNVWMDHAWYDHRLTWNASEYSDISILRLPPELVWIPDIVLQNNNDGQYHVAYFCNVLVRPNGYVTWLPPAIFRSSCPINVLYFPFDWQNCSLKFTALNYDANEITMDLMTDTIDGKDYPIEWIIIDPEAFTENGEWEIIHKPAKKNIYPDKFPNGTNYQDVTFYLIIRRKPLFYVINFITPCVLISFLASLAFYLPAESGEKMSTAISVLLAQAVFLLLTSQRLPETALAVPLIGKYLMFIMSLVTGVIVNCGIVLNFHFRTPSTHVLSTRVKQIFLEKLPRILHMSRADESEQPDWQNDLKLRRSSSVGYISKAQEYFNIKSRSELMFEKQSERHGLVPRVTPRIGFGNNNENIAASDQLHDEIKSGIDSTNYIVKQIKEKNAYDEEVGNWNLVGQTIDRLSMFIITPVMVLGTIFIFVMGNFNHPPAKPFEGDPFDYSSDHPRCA
Experimental: as §1, §2

[8] = biological target: anti-steroid Fab fragments; assay: Scatchard analysis of tritiated steroid binding to Fab fragments of affinity purified anti-steroid antibodies; design: species or system rabbit; settings: tritiated ligand, read-out: Kd for Fab fragments of the anti-steroid from Scatchard plots
Experimental: FIG. 5. Scatchard plot of the binding of [^3 H]triamcinolone acetonide to Fab fragments of affinity purified anti-steroid antibodies. Fab fragments (0.227 micrograms) were incubated with increasing concentrations of [^3 H]triamcinolone acetonide (0.4-62.5 nM) in the presence of 0.01M phosphate buffered saline pH 7.4 containing 0.1% gelatin in a total volume of 200 microliters. Total and non-specific binding (50 micromolar triamcinolone acetonide) were determined for each of the [^3 H]triamcinolone acetonide levels and all points were in duplicate. After incubating 1 hr at room temperature, add 1 ml cold 5% charcoal/dextran (diluted 1:40 in 0.01M PBS containing 0.1% gelatin) and let stand on ice for 10 min. Centrifuge down the charcoal/dextran, decant the supernatant into scintillation vials and determine the radioactivity.

[9] = unprocessed rabbit serum 540 dil 1:1000, 1×10^-8 M [3H]TA
[10] = affinity purified anti-steroid 1.3 micrograms, 1×10^-8 M [3H]TA, read-out: Affinity purified anti-steroid: amount of unlabeled steroid that can displace 50% binding of [3H]TA
[11] = anti-steroid Fab fragments 0.18 micrograms, 1×10^-8 M [3H]TA, read-out: Rabbit serum 541 Fab fragments: amount of unlabeled steroid that can displace 50% binding of [3H]TA
[12] = unprocessed rabbit serum 540 dil 1:1000, 1×10^-8 M [3H]TA, read-out: Rabbit Serum 540 Unprocessed: amount of unlabeled steroid that can displace 50% binding of [3H]TA

Row | Compound | effect on the binding of 8G11-C6 to anti-steroid Fab fragments [2] | IC50 [1, 10] | IC50 [1, 11] | IC50 [1, 12] | further results
1 | C[C@]12CC[C@H]3[C@@H](CCC4=CC(=O)CC[C@@]43C)[C@@H]1CC[C@@H]2O [Testosterone] | slight activation of binding | – | – | – | Affinity purified anti-steroid: amount of unlabeled steroid that can displace 50% binding of [3H]TA ([1]; affinity purified anti-steroid 1.3 micrograms, 1×10^-8 M [3H]TA): not inhibited; Rabbit serum 541 Fab fragments: amount of unlabeled steroid that can displace 50% binding of [3H]TA ([1]; anti-steroid Fab fragments 0.18 micrograms, 1×10^-8 M [3H]TA): not inhibited; Rabbit Serum 540 Unprocessed: amount of unlabeled steroid that can displace 50% binding of [3H]TA [1, 9]: not inhibited; effect on the binding of 8G11-C6 to partially purified glucocorticoid receptor [3]: only a slight inhibitory effect
2 | C[C@]12CCC(=O)C=C1CC[C@@H]1[C@@H]2[C@@H](O)C[C@@]2(C)[C@H]1CC[C@]2(O)C(=O)CO [Hydrocortisone] | – | 100000 nM | 100000 nM | 5000 nM | –
3 | C[C@]12C[C@H](O)[C@H]3[C@@H](CCC4=CC(=O)CC[C@@]43C)[C@@H]1CC[C@@H]2C(=O)CO [Corticosterone] | – | 100000 nM | 100000 nM | 6300 nM | –
4 | CC1(C)O[C@@H]2C[C@H]3[C@@H]4CCC5=CC(=O)C=C[C@]5(C)[C@@]4(F)[C@@H](O)C[C@]3(C)[C@]2(C(=O)CO)O1 [triamcinolone acetonide] | did not affect | – | – | – | Kd [4]: 5 nM; Kd ([1]; competitive binding with [3H]TA as tracer (FIG. 6, Table I), read-out: apparent Kd of the anti-steroid in unprocessed rabbit serum): 3.2 nM; Kd [5]: 15 nM
5 | C[C@]12C=CC(=O)C=C1CC[C@H]1[C@@H]3C[C@@H](O)[C@](O)(C(=O)CO)[C@@]3(C)C[C@H](O)[C@@]12F [Triamcinolone, 9-fluoro-11β, α16 , 17, 21-tetrahydroxypregna-1,4-diene-3, 20-dione] | slight activation of binding | 15 nM | 15 nM | 3.2 nM | IC50 [5]: 5 nM
6 | rabbit serum albumin: carrier protein tested alone as inhibitor | did not affect | – | – | – | –
7 | C[C@]12CC[C@@H]3c4ccc(O)cc4CC[C@H]3[C@@H]1CC[C@@H]2O [estradiol-17β] | slight activation of binding | – | – | – | effect on the binding of 8G11-C6 to partially purified glucocorticoid receptor [3]: no effect
8 | C[N+](C)(C)Cc1cccc(/N=N/c2cccc(C[N+](C)(C)C)c2)c1 [BisQ, trans-3,3'-bis(α-trimethylammonium)azotoluene] | – | – | – | – | IC50 [6]: ~40000 nM; IC50 [7]: 40000 nM
9 | C[C@]12CCC(=O)C[C@@H]1CC[C@@H]1[C@@H]2CC[C@]2(C)[C@@H](O)CC[C@@H]12 [Dihydrotestosterone] | – | – | – | – | Rabbit Serum 540 Unprocessed: amount of unlabeled steroid that can displace 50% binding of [3H]TA [1, 9]: no effect
10 | C[C@@H]1C[C@H]2[C@@H]3CCC4=CC(=O)C=C[C@]4(C)[C@@]3(F)[C@@H](O)C[C@]2(C)[C@@]1(O)C(=O)CO [Dexamethasone] | – | 620 nM | 630 nM | 120 nM | Kd [8]: 150 nM
11 | CC(=O)[C@H]1CC[C@H]2[C@@H]3CCC4=CC(=O)CC[C@]4(C)[C@H]3CC[C@]12C [Progesterone] | – | 100000 nM | 100000 nM | 100000 nM | –
